The source made the active and inactive calls. No cut-off for these calls is given here.
Tests used:
[1] = molecular target: Kappa-type opioid receptor (Mus musculus, UniProt P33534); test: Displacement of [3H]U-69,593 from kappa opioid receptor in mouse brain membranes by liquid scintillation counting method; assay type: cell membranes, Membrane
Mus musculus [2] = species: Mus musculus; test: Selectivity index, ratio of Ki for kappa opioid receptor in mouse brain membranes to Ki for delta opioid receptor in mouse brain membranes; assay type: cell membranes
[3] = molecular target: Delta-type opioid receptor (Mus musculus, UniProt P32300); test: Displacement of [3H]DPDPE from delta opioid receptor in mouse brain membranes by liquid scintillation counting method; assay type: cell membranes, Membrane
Chain of Delta-type opioid receptor (P32300 whole entry): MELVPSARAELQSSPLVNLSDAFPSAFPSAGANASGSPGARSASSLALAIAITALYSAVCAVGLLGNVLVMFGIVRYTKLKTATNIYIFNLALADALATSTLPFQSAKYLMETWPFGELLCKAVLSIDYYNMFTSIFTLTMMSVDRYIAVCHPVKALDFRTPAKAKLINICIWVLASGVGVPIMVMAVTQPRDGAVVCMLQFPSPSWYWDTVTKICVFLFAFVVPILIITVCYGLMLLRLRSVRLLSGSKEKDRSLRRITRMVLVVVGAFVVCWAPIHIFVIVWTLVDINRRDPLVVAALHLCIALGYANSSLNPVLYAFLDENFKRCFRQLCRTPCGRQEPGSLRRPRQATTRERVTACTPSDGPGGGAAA

Mu-type opioid receptor = Mu-type opioid receptor (Mus musculus, UniProt P42866); test: Displacement of [3H]DAMGO from mu opioid receptor in mouse brain membranes by liquid scintillation counting method; assay type: cell membranes, Membrane
Chain of Mu-type opioid receptor (P42866 whole entry): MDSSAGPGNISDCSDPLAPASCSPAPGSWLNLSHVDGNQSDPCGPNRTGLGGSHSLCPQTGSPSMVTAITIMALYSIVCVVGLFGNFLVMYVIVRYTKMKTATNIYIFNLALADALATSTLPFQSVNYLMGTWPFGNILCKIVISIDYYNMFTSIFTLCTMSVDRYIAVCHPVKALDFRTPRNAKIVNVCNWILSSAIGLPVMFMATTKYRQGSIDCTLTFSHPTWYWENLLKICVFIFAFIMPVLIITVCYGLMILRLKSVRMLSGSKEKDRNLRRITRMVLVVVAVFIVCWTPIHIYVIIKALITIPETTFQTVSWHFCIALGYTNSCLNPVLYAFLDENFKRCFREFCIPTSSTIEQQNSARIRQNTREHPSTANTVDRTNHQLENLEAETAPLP

Mus musculus [4] = species: Mus musculus; test: Selectivity index, ratio of Ki for mu opioid receptor in mouse brain membranes to Ki for delta opioid receptor in mouse brain membranes; assay type: cell membranes
NG108-15 [5] = test: Intrinsic agonist activity at delta opioid receptor in mouse/rat NG108-15 cells assessed as increase in ERK1/2 phosphorylation at 1 to 50 uM incubated for 20 mins by Western blot method; assay type: cell-based
[6] = molecular target: Delta-type opioid receptor (Mus musculus) (UniProt P32300); test: Agonist activity at delta opioid receptor in mouse vas deferens assessed as reduction in electric field stimulation-induced twitch contractions amplitude relative to control
Chain of Delta-type opioid receptor (Mus musculus) (P32300 whole entry): as the sequence (P32300 whole entry) above

NG108-15 [7] = test: Intrinsic agonist activity at delta opioid receptor in mouse/rat NG108-15 cells assessed as increase in ERK1/2 phosphorylation at 50 nM pre-treated with 500 nM opioid antagonist naloxone for 5 mins followed by compound exposure for 20 mins by Western blot method; assay type: cell-based
[8] = molecular target: Delta-type opioid receptor (Mus musculus) (UniProt P32300); test: Agonist activity at delta opioid receptor in mouse vas deferens assessed as reduction in electric field stimulation-induced twitch contractions amplitude in presence of 1 nM natrindole
[9] = molecular target: Delta-type opioid receptor (Mus musculus) (UniProt P32300); test: Agonist activity at delta opioid receptor in mouse vas deferens assessed as reduction in electric field stimulation-induced twitch contractions amplitude
NG108-15 [10] = test: Toxicity in mouse/rat NG108-15 cells; assay type: cell-based
NG108-15 [11] = test: Intrinsic agonist activity at delta opioid receptor in mouse/rat NG108-15 cells assessed as increase in ERK1/2 phosphorylation at 0.1 to 100 uM iincubated for 20 mins by Western blot method; assay type: cell-based
NG108-15 [12] = test: Intrinsic agonist activity at delta opioid receptor in mouse/rat NG108-15 cells assessed as increase in ERK1/2 phosphorylation by Western blot method; assay type: cell-based; details: TDE = time-dependent effect
NG108-15 [13] = test: Intrinsic agonist activity at delta opioid receptor in mouse/rat NG108-15 cells assessed as increase in ERK1/2 phosphorylation at 10 nM pre-treated with 500 nM opioid antagonist naloxone for 5 mins followed by compound exposure for 20 mins by Western blot method; assay type: cell-based
NG108-15 [14] = test: Intrinsic agonist activity at delta opioid receptor in mouse/rat NG108-15 cells assessed as increase in ERK1/2 phosphorylation At 1 nM pre-treated with 500 nM opioid antagonist naloxone for 5 mins followed by compound exposure for 20 mins by Western blot method; assay type: cell-based
NG108-15 [15] = test: Intrinsic agonist activity at delta opioid receptor in mouse/rat NG108-15 cells assessed as increase in ERK1/2 phosphorylation at 0.1 to 5 uM incubated for 20 mins by Western blot method; assay type: cell-based
NG108-15 [16] = test: Intrinsic agonist activity at delta opioid receptor in mouse/rat NG108-15 cells assessed as increase in ERK1/2 phosphorylation At 5 nM pre-treated with 500 nM opioid antagonist naloxone for 5 mins followed by compound exposure for 20 mins by Western blot method; assay type: cell-based

Chain of Kappa-type opioid receptor (P33534 whole entry): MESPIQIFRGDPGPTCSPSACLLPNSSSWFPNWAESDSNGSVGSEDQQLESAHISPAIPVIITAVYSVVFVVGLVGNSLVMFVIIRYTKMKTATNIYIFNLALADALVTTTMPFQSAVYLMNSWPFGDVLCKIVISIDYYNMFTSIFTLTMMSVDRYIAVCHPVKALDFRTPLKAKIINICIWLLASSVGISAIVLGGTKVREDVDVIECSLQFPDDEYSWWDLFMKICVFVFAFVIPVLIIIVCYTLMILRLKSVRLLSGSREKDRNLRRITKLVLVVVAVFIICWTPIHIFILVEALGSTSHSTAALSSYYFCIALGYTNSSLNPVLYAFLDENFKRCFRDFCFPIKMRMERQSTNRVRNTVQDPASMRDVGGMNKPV

Compound `C=CCN1C2CCCC1CN(C(c1ccc(C(=O)N(CC)CC)cc1)c1cccc(OC)c1)CC2` (mixture of isomers) has a Ki [1] of 4.25 µM, a Ratio Ki (Mus musculus [2]) of 467 and a Ki [3] of 0.0091 µM. For the same compound, the Ki (Mu-type opioid receptor) was 0.95 µM, the Ratio Ki (Mus musculus [4]) was 104 and the Activity (NG108-15 [5]) was “Active”. The Imax [6] was 90%, the Activity (NG108-15 [7]) was “Active” and the Activity [8] was “inactive”. The Activity [9] was “Active”.

`C=CCN1C[C@H](C)N([C@H](c2ccc(C(=O)N(CC)CC)cc2)c2cccc(OC)c2)C[C@H]1C` [SNC-80] was tested, and the Activity (NG108-15 [10]) was “Toxic”, the Activity (NG108-15 [11]) was “Dose-dependent effect” and the Activity (NG108-15 [12]) was “tde”. The Activity [8] was “inactive”, the Activity (NG108-15 [13]) was “inactive” and the Activity [9] was “Active”.

In the case of `C=CCN1C2CCC1CN(C(c1ccc(C(=O)N(CC)CC)cc1)c1cccc(OC)c1)CC2` (mixture of isomers), the Ki [1] is reported as 2.45 µM, the Activity (NG108-15 [14]) is reported as “Active” and the Ratio Ki (Mus musculus [2]) is reported as 1330. It also gave a Ki [3] of 0.00184 µM, a Ki (Mu-type opioid receptor) of 0.183 µM and a Ratio Ki (Mus musculus [4]) of 99.5. The Activity (NG108-15 [15]) was “Active”.

Work on `C=CCN1CC2CCCC(C1)N2C(c1ccc(C(=O)N(CC)CC)cc1)c1cccc(OC)c1` (racemic) yielded a Ki [1] of 2.2 µM, a Ratio Ki (Mus musculus [2]) of 1170 and a Ki [3] of 0.00188 µM. The Ki (Mu-type opioid receptor) was 2.27 µM, the Ratio Ki (Mus musculus [4]) was 1210 and the Activity (NG108-15 [5]) was “Active”. For the same compound, the Activity (NG108-15 [7]) was “Active”.

`C=CCN1CC2CC(C1)N2C(c1ccc(C(=O)N(CC)CC)cc1)c1cccc(OC)c1` (racemic) gave a Ki [1] of 4 µM, a Ratio Ki (Mus musculus [2]) of 2270 and a Ki [3] of 0.00176 µM. The Ki (Mu-type opioid receptor) was 1.15 µM, the Ratio Ki (Mus musculus [4]) was 653 and the Activity (NG108-15 [5]) was “Active”. For the same compound, the Imax [6] was 90%, the Activity [8] was “inactive” and the Activity [9] was “Active”.

`C=CCN1CC2CCC(C1)N2C(c1ccc(C(=O)N(CC)CC)cc1)c1cccc(OC)c1` (racemic) gave a Ki [1] of 0.3 µM, a Ratio Ki (Mus musculus [2]) of 882 and a Ki [3] of 0.00034 µM. For the same compound, the Ki (Mu-type opioid receptor) was 3.83 µM, the Ratio Ki (Mus musculus [4]) was 11300 and the Imax [6] was 90%. For the same compound, the Activity [8] was “inactive”, the Activity (NG108-15 [15]) was “Active” and the Activity (NG108-15 [16]) was “Active”. For the same compound, the Activity [9] was “Active”.

Reference: ChEMBL document CHEMBL3603739, “Novel diazabicycloalkane delta opioid agonists” (Bioorg Med Chem, 2015)
